What was measured:
[1] = test system: Leptinotarsa decemlineata; assay: Insecticidal activity against adult Leptinotarsa decemlineata infested potato leaves assessed as mortality at 10 mg after 96 hr relative to control; type: functional
[2] = test system: Leptinotarsa decemlineata; assay: Insecticidal activity against third-instar larval stage of Leptinotarsa decemlineata infested potato leaves assessed as mortality at 10 mg after 12 hr relative to control; type: functional
[3] = test system: Leptinotarsa decemlineata; assay: Insecticidal activity against first-instar larval stage of Leptinotarsa decemlineata infested potato leaves assessed as mortality at 10 mg after 12 hr relative to control; type: functional
[4] = test system: Leptinotarsa decemlineata; assay: Insecticidal activity against third-instar larval stage of Leptinotarsa decemlineata infested potato leaves assessed as mortality at 20 mg after 24 hr relative to control; type: functional
[5] = test system: Leptinotarsa decemlineata; type: functional, Instar larval stage
[6] = test system: Leptinotarsa decemlineata; assay: Insecticidal activity against adult Leptinotarsa decemlineata infested potato leaves assessed as mortality at 20 mg after 96 hr relative to control; type: functional
[7] = test system: Leptinotarsa decemlineata; assay: Insecticidal activity against adult Leptinotarsa decemlineata infested potato leaves assessed as mortality at 10 mg after 48 hr relative to control; type: functional
[8] = test system: Leptinotarsa decemlineata; assay: Insecticidal activity against first-instar larval stage of Leptinotarsa decemlineata infested potato leaves assessed as mortality at 10 mg after 48 hr relative to control; type: functional
[9] = test system: Leptinotarsa decemlineata; assay: Insecticidal activity against first-instar larval stage of Leptinotarsa decemlineata infested potato leaves assessed as mortality at 20 mg after 96 hr relative to control; type: functional
[10] = test system: Leptinotarsa decemlineata; assay: Insecticidal activity against first-instar larval stage of Leptinotarsa decemlineata infested potato leaves assessed as mortality at 10 mg after 96 hr relative to control; type: functional
[11] = test system: Leptinotarsa decemlineata; assay: Insecticidal activity against third-instar larval stage of Leptinotarsa decemlineata infested potato leaves assessed as mortality at 20 mg after 12 hr relative to control; type: functional
[12] = test system: Leptinotarsa decemlineata; assay: Insecticidal activity against first-instar larval stage of Leptinotarsa decemlineata infested potato leaves assessed as mortality at 20 mg after 48 hr relative to control; type: functional
[13] = test system: Leptinotarsa decemlineata; type: functional, Instar larval stage; remark: listed apart in the source
[14] = test system: Leptinotarsa decemlineata; assay: Insecticidal activity against adult Leptinotarsa decemlineata infested potato leaves assessed as mortality at 20 mg after 12 hr relative to control; type: functional
[15] = test system: Leptinotarsa decemlineata; assay: Insecticidal activity against adult Leptinotarsa decemlineata infested potato leaves assessed as mortality at 10 mg after 24 hr relative to control; type: functional
[16] = test system: Leptinotarsa decemlineata; assay: Insecticidal activity against adult Leptinotarsa decemlineata infested potato leaves assessed as mortality at 20 mg after 24 hr relative to control; type: functional
[17] = test system: Leptinotarsa decemlineata; assay: Insecticidal activity against third-instar larval stage of Leptinotarsa decemlineata infested potato leaves assessed as mortality at 10 mg after 24 hr relative to control; type: functional
[18] = test system: Leptinotarsa decemlineata; type: functional, Instar larval stage; remark: listed apart in the source
[19] = test system: Leptinotarsa decemlineata; assay: Insecticidal activity against first-instar larval stage of Leptinotarsa decemlineata infested potato leaves assessed as mortality at 20 mg after 12 hr relative to control; type: functional
[20] = test system: Leptinotarsa decemlineata; assay: Insecticidal activity against adult Leptinotarsa decemlineata infested potato leaves assessed as mortality at 20 mg after 48 hr relative to control; type: functional
[21] = test system: Leptinotarsa decemlineata; assay: Insecticidal activity against adult Leptinotarsa decemlineata infested potato leaves assessed as mortality at 10 mg after 12 hr relative to control; type: functional
[22] = test system: Leptinotarsa decemlineata; assay: Insecticidal activity against first-instar larval stage of Leptinotarsa decemlineata infested potato leaves assessed as mortality at 10 mg after 24 hr relative to control; type: functional
[23] = test system: Leptinotarsa decemlineata; type: functional, Instar larval stage; remark: listed apart in the source
[24] = test system: Leptinotarsa decemlineata; assay: Insecticidal activity against first-instar larval stage of Leptinotarsa decemlineata infested potato leaves assessed as mortality at 20 mg after 24 hr relative to control; type: functional
[25] = test system: Leptinotarsa decemlineata; assay: Insecticidal activity against third-instar larval stage of Leptinotarsa decemlineata infested potato leaves assessed as mortality at 20 ul after 96 hr (reference value: 3.3 +/- 3.3%); type: functional
[26] = test system: Leptinotarsa decemlineata; assay: Insecticidal activity against third-instar larval stage of Leptinotarsa decemlineata infested potato leaves assessed as mortality at 20 ul after 24 hr relative to control; type: functional
[27] = test system: Leptinotarsa decemlineata; assay: Insecticidal activity against second-instar larval stage of Leptinotarsa decemlineata infested potato leaves assessed as mortality at 10 ul after 48 hr (reference value: 3.3 +/- 3.3%); type: functional
[28] = test system: Leptinotarsa decemlineata; assay: Insecticidal activity against adult Leptinotarsa decemlineata infested potato leaves assessed as mortality at 20 ul after 96 hr relative to control; type: functional
[29] = test system: Leptinotarsa decemlineata; assay: Insecticidal activity against second-instar larval stage of Leptinotarsa decemlineata infested potato leaves assessed as mortality at 20 ul after 48 hr (reference value: 3.3 +/- 3.3%); type: functional
[30] = test system: Leptinotarsa decemlineata; assay: Insecticidal activity against third-instar larval stage of Leptinotarsa decemlineata infested potato leaves assessed as mortality at 20 ul after 48 hr (reference value: 3.3 +/- 3.3%); type: functional
[31] = test system: Leptinotarsa decemlineata; assay: Insecticidal activity against adult Leptinotarsa decemlineata infested potato leaves assessed as mortality at 10 ul after 96 hr relative to control; type: functional
[32] = test system: Leptinotarsa decemlineata; assay: Insecticidal activity against second-instar larval stage of Leptinotarsa decemlineata infested potato leaves assessed as mortality at 10 ul after 96 hr (reference value: 3.3 +/- 3.3%); type: functional
[33] = test system: Leptinotarsa decemlineata; assay: Insecticidal activity against adult Leptinotarsa decemlineata infested potato leaves assessed as mortality at 20 ul after 48 hr relative to control; type: functional
[34] = test system: Leptinotarsa decemlineata; assay: Insecticidal activity against third-instar larval stage of Leptinotarsa decemlineata infested potato leaves assessed as mortality at 10 ul after 12 hr relative to control; type: functional
[35] = test system: Leptinotarsa decemlineata; assay: Insecticidal activity against second-instar larval stage of Leptinotarsa decemlineata infested potato leaves assessed as mortality at 20 ul after 12 hr relative to control; type: functional
[36] = test system: Leptinotarsa decemlineata; assay: Insecticidal activity against third-instar larval stage of Leptinotarsa decemlineata infested potato leaves assessed as mortality at 10 ul after 48 hr (reference value: 3.3 +/- 3.3%); type: functional
[37] = test system: Leptinotarsa decemlineata; assay: Insecticidal activity against third-instar larval stage of Leptinotarsa decemlineata infested potato leaves assessed as mortality at 20 ul after 12 hr relative to control; type: functional
[38] = test system: Leptinotarsa decemlineata; assay: Insecticidal activity against second-instar larval stage of Leptinotarsa decemlineata infested potato leaves assessed as mortality at 20 ul after 24 hr (reference value: 3.3 +/- 3.3%); type: functional
[39] = test system: Leptinotarsa decemlineata; assay: Insecticidal activity against first-instar larval stage of Leptinotarsa decemlineata infested potato leaves assessed as mortality at 10 ul after 96 hr relative to control; type: functional
[40] = test system: Leptinotarsa decemlineata; assay: Insecticidal activity against adult Leptinotarsa decemlineata infested potato leaves assessed as mortality at 20 ul after 12 hr relative to control; type: functional
[41] = test system: Leptinotarsa decemlineata; assay: Insecticidal activity against first-instar larval stage of Leptinotarsa decemlineata infested potato leaves assessed as mortality at 20 ul after 12 hr relative to control; type: functional
[42] = test system: Leptinotarsa decemlineata; assay: Insecticidal activity against adult Leptinotarsa decemlineata infested potato leaves assessed as mortality at 20 ul after 24 hr relative to control; type: functional
[43] = test system: Leptinotarsa decemlineata; assay: Insecticidal activity against third-instar larval stage of Leptinotarsa decemlineata infested potato leaves assessed as mortality at 10 ul after 96 hr (reference value: 3.3 +/- 3.3%); type: functional
[44] = test system: Leptinotarsa decemlineata; assay: Insecticidal activity against third-instar larval stage of Leptinotarsa decemlineata infested potato leaves assessed as mortality at 10 ul after 24 hr relative to control; type: functional
[45] = test system: Leptinotarsa decemlineata; assay: Insecticidal activity against adult Leptinotarsa decemlineata infested potato leaves assessed as mortality at 10 ul after 24 hr relative to control; type: functional
[46] = test system: Leptinotarsa decemlineata; assay: Insecticidal activity against first-instar larval stage of Leptinotarsa decemlineata infested potato leaves assessed as mortality at 20 ul after 96 hr relative to control; type: functional
[47] = test system: Leptinotarsa decemlineata; assay: Insecticidal activity against first-instar larval stage of Leptinotarsa decemlineata infested potato leaves assessed as mortality at 10 ul after 48 hr relative to control; type: functional
[48] = test system: Leptinotarsa decemlineata; assay: Insecticidal activity against second-instar larval stage of Leptinotarsa decemlineata infested potato leaves assessed as mortality at 10 ul after 24 hr (reference value: 3.3 +/- 3.3%); type: functional
[49] = test system: Leptinotarsa decemlineata; assay: Insecticidal activity against first-instar larval stage of Leptinotarsa decemlineata infested potato leaves assessed as mortality at 20 ul after 24 hr relative to control; type: functional
[50] = test system: Leptinotarsa decemlineata; assay: Insecticidal activity against first-instar larval stage of Leptinotarsa decemlineata infested potato leaves assessed as mortality at 20 ul after 48 hr relative to control; type: functional
[51] = test system: Leptinotarsa decemlineata; assay: Insecticidal activity against first-instar larval stage of Leptinotarsa decemlineata infested potato leaves assessed as mortality at 10 ul after 12 hr relative to control; type: functional
[52] = test system: Leptinotarsa decemlineata; assay: Insecticidal activity against second-instar larval stage of Leptinotarsa decemlineata infested potato leaves assessed as mortality at 20 ul after 96 hr (reference value: 3.3 +/- 3.3%); type: functional
[53] = test system: Leptinotarsa decemlineata; assay: Insecticidal activity against adult Leptinotarsa decemlineata infested potato leaves assessed as mortality at 10 ul after 48 hr relative to control; type: functional
[54] = test system: Leptinotarsa decemlineata; assay: Insecticidal activity against second-instar larval stage of Leptinotarsa decemlineata infested potato leaves assessed as mortality at 10 ul after 12 hr relative to control; type: functional
[55] = test system: Leptinotarsa decemlineata; assay: Insecticidal activity against first-instar larval stage of Leptinotarsa decemlineata infested potato leaves assessed as mortality at 10 ul after 24 hr relative to control; type: functional
[56] = test system: Leptinotarsa decemlineata; assay: Insecticidal activity against adult Leptinotarsa decemlineata infested potato leaves assessed as mortality at 10 ul after 12 hr relative to control; type: functional

## C=C1C2CCC(C2)C1(C)C (stereo unspecified) [CAMPHENE]
[1]
  mortality: 13.3%
[2]
  mortality: 0%
[3]
  mortality: 0%
[4]
  mortality: 43.3%
[5]
  mortality: 50%
[6]
  mortality: 76.7%
[7]
  mortality: 13.3%
[8]
  mortality: 6.7%
[9]
  mortality: 26.7%
[10]
  mortality: 10%
[11]
  mortality: 16.7%
[12]
  mortality: 23.3%
[13]
  mortality: 10%
[14]
  mortality: 30%
[15]
  mortality: 13.3%
[16]
  mortality: 73.3%
[17]
  mortality: 0%
[18]
  mortality: 6.7%
[19]
  mortality: 13.3%
[20]
  mortality: 76.7%
[21]
  mortality: 6.7%
[22]
  mortality: 0%
[23]
  mortality: 46.7%
[24]
  mortality: 23.3%

## CC(C)=CCCC(C)CCO (stereo unspecified) [CITRONELLOL]
[25]
  mortality: 16.7%
[26]
  mortality: 3.3%
[27]
  mortality: 46.7%
[28]
  mortality: 0%
[29]
  mortality: 23.3%
[30]
  mortality: 6.7%
[31]
  mortality: 13.3%
[32]
  mortality: 50%
[33]
  mortality: 0%
[34]
  mortality: 20%
[35]
  mortality: 16.7%
[36]
  mortality: 23.3%
[37]
  mortality: 3.3%
[38]
  mortality: 20%
[39]
  mortality: 50%
[40]
  mortality: 0%
[41]
  mortality: 0%
[42]
  mortality: 0%
[43]
  mortality: 26.7%
[44]
  mortality: 20%
[45]
  mortality: 13.3%
[46]
  mortality: 26.7%
[47]
  mortality: 46.7%
[48]
  mortality: 40%
[49]
  mortality: 3.3%
[50]
  mortality: 16.7%
[51]
  mortality: 6.7%
[52]
  mortality: 26.7%
[53]
  mortality: 13.3%
[54]
  mortality: 6.7%
[55]
  mortality: 40%
[56]
  mortality: 13.3%

— ChEMBL document CHEMBL3046407, “Toxicity of monoterpenes against larvae and adults of Colorado potato beetle, Leptinotarsa decemlineata Say (Coleoptera: Chrysomelidae)” (2007)
